According to patent publication US11369113B2, “Vector control compositions, methods and products utilizing same” (Syngenta Participations AG, priority 2017, dated 2022):
Where two headings read alike, the source gives them in different places.

Tests used:
Assay type in all cases: in vivo
[1] = system: VK7 2014 (An. coluzzii, DDT & pyrethroid resistant); experiment: Example B4: bottle based cross resistance study (CDC bottle assay), strain VK7 2014; set-up: unit not given here; conditions: 1 h bottle exposure
Procedure: (§1) Based on the “CDC bottle assay” (described at http://www.cdc.gov/malaria/resources/pdf/fsp/ir_manual/ir_cdc_bioassay_en.pdf) 1 ml of ethanol containing a test compound at a defined concentration was added to a 250 ml glass bottle and the bottles were placed on a rolling table to coat the inner surfaces as the solvent evaporated. Once dry, twenty five non-blood fed adult female mosquitoes of the appropriate species and strains (each three day old) were aspirated from the stock culture and gently blown into the exposure bottles. The lid of the bottle was replaced and the bottle placed upright out of direct sun light under standard culture conditions, nominally 26° C. and 60-80% relative humidity.
(§2) A stopwatch was started, and the assessment of the knock-down were made after 15 mins and 60 minutes. A mosquito was said to be knocked down if it was unable to stand, following the CDC definition. The bottles were replaced in an upright position when not being assessed.
(§3) After one hour the mosquitoes were carefully removed from the bottle with an aspirator and placed in a recovery cup. The mosquitoes were supplied with a 10% sucrose solution on a cotton wool bung, and stored under culture conditions. Assessments of the mortality were made after 24 hours.
(§4) Each treatment was replicated a minimum of three times, with the exception of the Banfora strain, where only a single replicate was undertaken, with the mean knockdown or mortality recorded. In each study, a set of bottles was infested with a known insecticide susceptible strain of mosquitoes from the same genera as the resistant strains.

[2] = system: Banfora (An. gambiae, DDT & pyrethroid resistant); experiment: Example B4: bottle based cross resistance study (CDC bottle assay), strain Banfora; conditions: Anopheles gambiae, read-out: knockdown or mortality (Table B4 does not name the quantity)
Procedure: as §1, §2, §3, §4

[3] = system: Tiassalé 13 (An. gambiae, pyrethroid resistant); experiment: Example B4: bottle based cross resistance study (CDC bottle assay), strain Tiassalé 13; conditions: Anopheles gambiae, read-out: mean knockdown or mortality (Table B4 does not name the quantity)
Procedure: as §1, §2, §3, §4

[4] = system: Anopheles stephensi (Indian Malaria Mosquito); experiment: Example B2: treated 12-well plate contact test, adult female Anopheles stephensi; conditions: for mortality at 0.2 ppm / mortality at 2 ppm / mortality at 20 ppm: Anopheles stephensi
Procedure: […] Once the deposits were dry, five non-blood fed adult female Anopheles stephensi (between two to five day old) were added to each well, and sustained with a 10% sucrose solution in a cotton wool plug. Assessment of the knockdown was carried our after 1 hour, and mortality after 24 hours and 48 hours.

[5] = system: Aedes aegypti (Yellow Fever Mosquito); experiment: whole plant or invertebrate; conditions: for mortality at 0.2 ppm / mortality at 2 ppm / mortality at 20 ppm: Aedes aegypti
Procedure: […] Once the deposits were dry, five non-blood fed adult female Aedes aegypti (between two to five day old) were added to each well, and sustained with a 10% sucrose solution in a cotton wool plug. Assessment of the knockdown was carried our after 1 hour, and mortality after 24 hours and 48 hours.

Anopheles stephensi = experiment: Example B3: treated 6-well plate contact test, adult female Anopheles stephensi; conditions: for mortality at 0.3125 ppm / mortality at 0.625 ppm / mortality at 1.25 ppm / mortality at 2.5 ppm: Anopheles stephensi; for Knockdown 1 h: mean of two replicates
Procedure: The individual wells of six (6) well tissue culture plates were treated with 250 μl of an ethanol solution containing a test compound at a defined concentration. Once the deposits were dry, ten non-blood fed adult female Anopheles stephensi (each between two to five day old) were added to each well, and sustained with a 10% sucrose solution in a cotton wool plug. Assessment of the knockdown was carried our after 1 hour, and mortality after 24 hours and 48 hours. Each treatment was replicated twice, with the mean mortality recorded.

[6] = system: Kisumu sus (Anopheles gambiae, susceptible); experiment: Example B4: bottle based cross resistance study (CDC bottle assay), strain Kisumu sus; conditions: read-out: mean knockdown or mortality (Table B4 does not name the quantity)
Procedure: as §1, §2, §3, §4

[7] = Banfora, rate 6.25 ppm, 1 h bottle exposure, single replicate
[8] = Banfora, rate 12.5 ppm, 1 h bottle exposure, single replicate
[9] = Banfora, rate 25 ppm, 1 h bottle exposure, single replicate
[10] = Tiassalé 13, rate 6.25 ppm, 1 h bottle exposure
[11] = Tiassalé 13, rate 12.5 ppm, 1 h bottle exposure
[12] = Tiassalé 13, rate 25 ppm, 1 h bottle exposure
[13] = 24 h, read-out: adult mortality 24 h
[14] = 48 h, read-out: adult mortality 48 h
[15] = 0.2 ppm, 24 h, read-out: adult mortality 24 h
[16] = 0.2 ppm, 48 h, read-out: adult mortality 48 h
[17] = 2 ppm, 24 h, read-out: adult mortality 24 h
[18] = 2 ppm, 48 h, read-out: adult mortality 48 h
[19] = 20 ppm, 24 h, read-out: adult mortality 24 h
[20] = 20 ppm, 48 h, read-out: adult mortality 48 h

## CO/C=C(/C(=O)OC)c1ccccc1Oc1ncc(C(F)(F)F)s1 [Compound of formula II, Methyl (E)-3-methoxy-2-[2-[5-(trifluoromethyl)thiazol-2-yl]oxyphenyl]-prop-2-enoate]
[1]; VK7 2014, rate 6.25 ppm
  mean knockdown or mortality (Table B4 does not name the quantity): 7
[1]; VK7 2014, rate 12.5 ppm
  mean knockdown or mortality (Table B4 does not name the quantity): 18
[1]; VK7 2014, rate 25 ppm
  mean knockdown or mortality (Table B4 does not name the quantity): 100
[2]; [7]
  knockdown or mortality (%) at 6.25 ppm: 13%
[2]; [8]
  knockdown or mortality (%) at 12.5 ppm: 33%
[2]; [9]
  knockdown or mortality (%) at 25 ppm: 100%
[3]; [10]
  mean knockdown or mortality at 6.25 ppm: 55%
[3]; [11]
  mean knockdown or mortality at 12.5 ppm: 46%
[3]; [12]
  mean knockdown or mortality at 25 ppm: 100%
[4]; 0.2 ppm
  adult knockdown 1 h: 0
[4]; 2 ppm
  adult knockdown 1 h: 0
[4]; 20 ppm
  adult knockdown 1 h: 100
[4]; [13]
  mortality at 0.2 ppm: 0%
  mortality at 2 ppm: 80%
  mortality at 20 ppm: 100%
[4]; [14]
  mortality at 0.2 ppm: 0%
  mortality at 2 ppm: 100%
  mortality at 20 ppm: 100%
[5]; 0.2 ppm
  adult knockdown 1 h: 0
[5]; 2 ppm
  adult knockdown 1 h: 0
[5]; 20 ppm
  adult knockdown 1 h: 100
[5]; [15]
  mortality at 0.2 ppm: 0%
[5]; [16]
  mortality at 0.2 ppm: 0%
[5]; [17]
  mortality at 2 ppm: 0%
[5]; [18]
  mortality at 2 ppm: 0%
[5]; [19]
  mortality at 20 ppm: 100%
[5]; [20]
  mortality at 20 ppm: 100%
Anopheles stephensi; 24 h, read-out: Mortality 24 h
  mortality at 0.3125 ppm: 15%
  mortality at 0.625 ppm: 33%
  mortality at 1.25 ppm: 83%
  mortality at 2.5 ppm: 93%
Anopheles stephensi; 48 h, read-out: Mortality 48 h
  mortality at 0.3125 ppm: 22%
  mortality at 0.625 ppm: 30%
  mortality at 1.25 ppm: 88%
  mortality at 2.5 ppm: 97%
Anopheles stephensi; rate 0.3125 ppm
  Knockdown 1 h: 13
Anopheles stephensi; rate 0.625 ppm
  Knockdown 1 h: 27
Anopheles stephensi; rate 1.25 ppm
  Knockdown 1 h: 48
Anopheles stephensi; rate 2.5 ppm
  Knockdown 1 h: 73
[6]; 1 h
  percent knockdown or mortality at 6.25 ppm: 61%
  percent knockdown or mortality at 12.5 ppm: 33%
  percent knockdown or mortality at 25 ppm: 100%

## CC1(C)C(C=C(Cl)Cl)C1C(=O)OCc1cccc(Oc2ccccc2)c1 (stereo not drawn) [Permethrin]
[1]; VK7 2014, rate 6.25 ppm
  mean knockdown or mortality (Table B4 does not name the quantity): 5
[1]; VK7 2014, rate 12.5 ppm
  mean knockdown or mortality (Table B4 does not name the quantity): 3
[1]; VK7 2014, rate 25 ppm
  mean knockdown or mortality (Table B4 does not name the quantity): 7
[2]; 1 h
  knockdown or mortality (%) at 6.25 ppm: 14%
  knockdown or mortality (%) at 12.5 ppm: 38%
  knockdown or mortality (%) at 25 ppm: 45%
[3]; 1 h
  mean knockdown or mortality at 6.25 ppm: 13%
  mean knockdown or mortality at 12.5 ppm: 45%
  mean knockdown or mortality at 25 ppm: 69%
[6]; 1 h
  percent knockdown or mortality at 5 ppm: 100%
  percent knockdown or mortality at 10 ppm: 100%
  percent knockdown or mortality at 20 ppm: 100%

## CO/C=C(/C(=O)OC)c1ccccc1Oc1nc(Cl)c(C(F)(F)F)s1 [Compound of formula I, Methyl (E)-2-[2-[4-chloro-5-(trifluoromethyl)thiazol-2-yl]oxyphenyl]-3-methoxy-prop-2-enoate]
[1]; VK7 2014, rate 6.25 ppm
  mean knockdown or mortality (Table B4 does not name the quantity): 10
[1]; VK7 2014, rate 12.5 ppm
  mean knockdown or mortality (Table B4 does not name the quantity): 61
[1]; VK7 2014, rate 25 ppm
  mean knockdown or mortality (Table B4 does not name the quantity): 100
[2]; [7]
  knockdown or mortality (%) at 6.25 ppm: 26%
[2]; [8]
  knockdown or mortality (%) at 12.5 ppm: 52%
[2]; [9]
  knockdown or mortality (%) at 25 ppm: 100%
[3]; [10]
  mean knockdown or mortality at 6.25 ppm: 69%
[3]; [11]
  mean knockdown or mortality at 12.5 ppm: 81%
[3]; [12]
  mean knockdown or mortality at 25 ppm: 100%
[4]; 0.2 ppm
  adult knockdown 1 h: 0
[4]; 2 ppm
  adult knockdown 1 h: 80
[4]; 20 ppm
  adult knockdown 1 h: 100
[4]; [13]
  mortality at 0.2 ppm: 20%
  mortality at 2 ppm: 100%
  mortality at 20 ppm: 100%
[4]; [14]
  mortality at 0.2 ppm: 20%
  mortality at 2 ppm: 100%
  mortality at 20 ppm: 100%
[5]; 0.2 ppm
  adult knockdown 1 h: 0
[5]; 2 ppm
  adult knockdown 1 h: 20
[5]; 20 ppm
  adult knockdown 1 h: 100
[5]; [15]
  mortality at 0.2 ppm: 20%
[5]; [16]
  mortality at 0.2 ppm: 20%
[5]; [17]
  mortality at 2 ppm: 60%
[5]; [18]
  mortality at 2 ppm: 80%
[5]; [19]
  mortality at 20 ppm: 100%
[5]; [20]
  mortality at 20 ppm: 100%
Anopheles stephensi; 24 h, read-out: Mortality 24 h
  mortality at 0.3125 ppm: 63%
  mortality at 0.625 ppm: 80%
  mortality at 1.25 ppm: 98%
  mortality at 2.5 ppm: 100%
Anopheles stephensi; 48 h, read-out: Mortality 48 h
  mortality at 0.3125 ppm: 65%
  mortality at 0.625 ppm: 82%
  mortality at 1.25 ppm: 100%
  mortality at 2.5 ppm: 100%
Anopheles stephensi; rate 0.3125 ppm
  Knockdown 1 h: 20
Anopheles stephensi; rate 0.625 ppm
  Knockdown 1 h: 43
Anopheles stephensi; rate 1.25 ppm
  Knockdown 1 h: 70
Anopheles stephensi; rate 2.5 ppm
  Knockdown 1 h: 87
[6]; Kisumu sus, rate 6.25 ppm, 1 h bottle exposure
  percent knockdown or mortality at 6.25 ppm: 74%
[6]; Kisumu sus, rate 12.5 ppm, 1 h bottle exposure
  percent knockdown or mortality at 12.5 ppm: 99%
[6]; Kisumu sus, rate 25 ppm, 1 h bottle exposure
  percent knockdown or mortality at 25 ppm: 100%
